Measured values: the supplement of paper PMC11208160

Assay: recombinant UMI read abundance after kanamycin selection (control-corrected) (log10(CPM+1)); higher = more efficient recombination; extreme values may be limits of the assay; sequences stand for … in AGTGCAGAGAAAATCGGCCAGTTTTCTCTGCCTGCAGTCCGCATGCCGTGGGACCCCTTGGGTTCTAACCTGTTGCCTAGATTTATGCAGCGGACTGCCTTTCTCCCAAAGTGATAAACCGG…AGGTTGGTTTCACT; site = the 11-nt donor
How it was run: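 Values, expressed as log10(CPM+1), derive from recombinant UMI counts converted to CPM, averaged across replicates and scaled by control-derived factors. Plating was with IPTG (0.07 mM) plus kanamycin or unselected, two replicates each. The screen pooled donor and donor-binding-loop pairs for the IS621 bridge recombinase in Escherichia coli.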
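Note: IS621 bridge recombinase in Escherichia coli cells against a fixed T5 target plasmid.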

Sequence	recombinant UMI read abundance (log10)
TAGCTAGCATGGACCGGTTTTCCCGGTAATCCGTATTTGGA (site TAGCTAGCTTA)	0.347
TAGCTAGCATGGACCGGTTTTCCCGGTAATCCGTATTTGGA (site TAGCTAGCTTC)	0.303
TAGCTAGCATGGACCGGTTTTCCCGGTAATCCGTATTTGGA (site TAGCTAGCTTG)	0.447
TAGCTAGCATGGACCGGTTTTCCCGGTAATCCGTATTTGGA (site TAGCTAGCTTT)	0.866
TAGCTCACATGGACCGGTTTTCCCGGTAATCCGTATTTGGC (site TAGCTCACTGC)	1.5
TAGCTCGCATGGACCGGTTTTCCCGGTAATCCGTATTTGAA (site TAGCTAGCTTT)	0.0173
TAGCTCGCATGGACCGGTTTTCCCGGTAATCCGTATTTGAA (site TAGCTCGCTTT)	1.27
TAGCTCGCATGGACCGGTTTTCCCGGTAATCCGTATTTGAA (site TAGCTGGCTTT)	0.0219
TAGCTCGCATGGACCGGTTTTCCCGGTAATCCGTATTTGAA (site TAGCTTGCTTT)	0.0127
TAGGAACCATGGACCGGTTTTCCCGGTAATCCGTATTTGCG (site TAGGAAACTCG)	0.374
TAGGAACCATGGACCGGTTTTCCCGGTAATCCGTATTTGCG (site TAGGAACCTCG)	0.478
TAGGAACCATGGACCGGTTTTCCCGGTAATCCGTATTTGCG (site TAGGAAGCTCG)	0.00966
TAGGAACCATGGACCGGTTTTCCCGGTAATCCGTATTTGCG (site TAGGAATCTCG)	0.681
TAGGAAGCATGGACCGGTTTTCCCGGTAATCCGTATTTGCG (site TAGGAAACTCG)	2.32
TAGGAAGCATGGACCGGTTTTCCCGGTAATCCGTATTTGCG (site TAGGAACCTCG)	0.00974
TAGGAAGCATGGACCGGTTTTCCCGGTAATCCGTATTTGCG (site TAGGAAGCTCG)	2.73
TAGGAAGCATGGACCGGTTTTCCCGGTAATCCGTATTTGCG (site TAGGAATCTCG)	1.85
TAGGAATCATGGACCGGTTTTCCCGGTAATCCGTATTTGCC (site TAGGAATCTAG)	1.1
TAGGAATCATGGACCGGTTTTCCCGGTAATCCGTATTTGCC (site TAGGAATCTCG)	0.458
TAGGAATCATGGACCGGTTTTCCCGGTAATCCGTATTTGCC (site TAGGAATCTGG)	2.68
TAGGAATCATGGACCGGTTTTCCCGGTAATCCGTATTTGCC (site TAGGAATCTTG)	1.74
TAGGACTCATGGACCGGTTTTCCCGGTAATCCGTATTTGCG (site TAGGAATCTCG)	1.98
TAGGACTCATGGACCGGTTTTCCCGGTAATCCGTATTTGCG (site TAGGACTCTCG)	2.75
TAGGACTCATGGACCGGTTTTCCCGGTAATCCGTATTTGCG (site TAGGAGTCTCG)	1.05
TAGGACTCATGGACCGGTTTTCCCGGTAATCCGTATTTGCG (site TAGGATTCTCG)	1.05

Sequence	recombinant UMI read abundance (log10)
TAGGTACCATGGACCGGTTTTCCCGGTAATCCGTATTTGTT (site TAGGTACCTAA)	0.0119
TAGGTTTCATGGACCGGTTTTCCCGGTAATCCGTATTTGCG (site TAGGTTTCTCG)	1.99
TAGTAATCATGGACCGGTTTTCCCGGTAATCCGTATTTGCG (site TAGAAATCTCG)	1.56
TAGTAATCATGGACCGGTTTTCCCGGTAATCCGTATTTGCG (site TAGCAATCTCG)	2.29
TAGTAATCATGGACCGGTTTTCCCGGTAATCCGTATTTGCG (site TAGGAATCTCG)	1.47
TAGTAATCATGGACCGGTTTTCCCGGTAATCCGTATTTGCG (site TAGTAATCTCG)	2.65
TAGTACTCATGGACCGGTTTTCCCGGTAATCCGTATTTGAT (site TAGTACTCTAT)	2.53
TAGTATACATGGACCGGTTTTCCCGGTAATCCGTATTTGTG (site TAGTATACTCA)	0.807
TAGTCAACATGGACCGGTTTTCCCGGTAATCCGTATTTGTT (site TAGTCAACTAA)	0.0293
TAGTCAGCATGGACCGGTTTTCCCGGTAATCCGTATTTGCT (site TAGTCAGCTAG)	0.957
TAGTCTGCATGGACCGGTTTTCCCGGTAATCCGTATTTGAG (site TAGTCTGCTCT)	0.338
TAGTGAGCATGGACCGGTTTTCCCGGTAATCCGTATTTGGG (site TAATGAGCTCC)	0.00708
TAGTGAGCATGGACCGGTTTTCCCGGTAATCCGTATTTGGG (site TACTGAGCTCC)	0
TAGTGAGCATGGACCGGTTTTCCCGGTAATCCGTATTTGGG (site TAGTGAGCTCC)	0.0293
TAGTGAGCATGGACCGGTTTTCCCGGTAATCCGTATTTGGG (site TATTGAGCTCC)	0
TAGTGGACATGGACCGGTTTTCCCGGTAATCCGTATTTGTT (site TAGTGGACTAA)	1.38
TAGTGTACATGGACCGGTTTTCCCGGTAATCCGTATTTGAT (site TAGTGTACTAT)	0.856
TATAAAGCATGGACCGGTTTTCCCGGTAATCCGTATTTGGA (site TATAAAGCTTC)	0.646
TATAATACATGGACCGGTTTTCCCGGTAATCCGTATTTGCA (site TAAAATACTTG)	1.04
TATAATACATGGACCGGTTTTCCCGGTAATCCGTATTTGCA (site TACAATACTTG)	0.35
TATAATACATGGACCGGTTTTCCCGGTAATCCGTATTTGCA (site TAGAATACTTG)	2.6
TATAATACATGGACCGGTTTTCCCGGTAATCCGTATTTGCA (site TATAATACTTG)	0.242
TATACTGCATGGACCGGTTTTCCCGGTAATCCGTATTTGCT (site TATACTGCTAG)	1.63
TATAGCGCATGGACCGGTTTTCCCGGTAATCCGTATTTGTC (site TATAGCGCTGA)	2.62
TATAGTCCATGGACCGGTTTTCCCGGTAATCCGTATTTGTA (site TAAAGTCCTTA)	0.605

Sequence	recombinant UMI read abundance (log10)
TATAGTCCATGGACCGGTTTTCCCGGTAATCCGTATTTGTA (site TACAGTCCTTA)	0.121
TATAGTCCATGGACCGGTTTTCCCGGTAATCCGTATTTGTA (site TAGAGTCCTTA)	0.0216
TATAGTCCATGGACCGGTTTTCCCGGTAATCCGTATTTGTA (site TATAGTCCTTA)	0.432
TATCAAACATGGACCGGTTTTCCCGGTAATCCGTATTTGGC (site TATCAAACTGC)	0
TATCACACATGGACCGGTTTTCCCGGTAATCCGTATTTGTC (site TATCACACTGA)	1.5
TATCAGCCATGGACCGGTTTTCCCGGTAATCCGTATTTGTT (site TATCAGCCTAA)	0.0212
TATCCATCATGGACCGGTTTTCCCGGTAATCCGTATTTGCG (site TATCCATCTCG)	0.52
TATCGAGCATGGACCGGTTTTCCCGGTAATCCGTATTTGTC (site TATCGAGCTGA)	2.55
TATCGTCCATGGACCGGTTTTCCCGGTAATCCGTATTTGCG (site TATCGTCCTCG)	0.0127
TATCTCACATGGACCGGTTTTCCCGGTAATCCGTATTTGTC (site TATCTCACTGA)	1.44
TATCTTCCATGGACCGGTTTTCCCGGTAATCCGTATTTGGT (site TATCTTCCTAC)	0.00632
TATGCGACATGGACCGGTTTTCCCGGTAATCCGTATTTGCT (site TATGCGACTAG)	1.27
TATGCTGCATGGACCGGTTTTCCCGGTAATCCGTATTTGGA (site TATGCTGCTTC)	0.0199
TATGGACCATGGACCGGTTTTCCCGGTAATCCGTATTTGCA (site TATGGACCTTG)	0
TATGGGTCATGGACCGGTTTTCCCGGTAATCCGTATTTGCT (site TATGGGTCTAG)	2.88
TATGTAACATGGACCGGTTTTCCCGGTAATCCGTATTTGCT (site AATGTAACTAG)	0.864
TATGTAACATGGACCGGTTTTCCCGGTAATCCGTATTTGCT (site CATGTAACTAG)	1.18
TATGTAACATGGACCGGTTTTCCCGGTAATCCGTATTTGCT (site GATGTAACTAG)	1.67
TATGTAACATGGACCGGTTTTCCCGGTAATCCGTATTTGCT (site TATGTAACTAG)	2.06
TATGTATCATGGACCGGTTTTCCCGGTAATCCGTATTTGCC (site TATGTATCTGG)	2.66
TATGTGGCATGGACCGGTTTTCCCGGTAATCCGTATTTGAA (site TATGTGGCTTT)	0.784
TATGTGGCATGGACCGGTTTTCCCGGTAATCCGTATTTGTG (site TATATGGCTCA)	0.00536
TATGTGGCATGGACCGGTTTTCCCGGTAATCCGTATTTGTG (site TATCTGGCTCA)	0.0111
TATGTGGCATGGACCGGTTTTCCCGGTAATCCGTATTTGTG (site TATGTGGCTCA)	0.00847
TATGTGGCATGGACCGGTTTTCCCGGTAATCCGTATTTGTG (site TATTTGGCTCA)	0.0197
